Assay results taken from patent US20110071150A1 (priority 2009, published 2011).

system: Jurkat IL-2 Production; test: Jurkat IL-2 Production Assay; type: cell-based; conditions: Homo sapiens, Jurkat cell (ATCC), 18-20 h incubation, PHA 5 μg/mL with 1% FBS, or PMA/Ionomycin with 30% FBS (table does not say which)
How it was run: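 Jurkat cells were exposed to compound (0.25% DMSO final) for 10 min, then stimulated for 18–20 h at 37 °C. The 1% FBS condition used 5 μg/mL PHA; the high-serum condition (30% FBS) used 50 ng/mL PMA plus 500 ng/mL ionomycin. IC50 was derived from IL-2 production.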

Row | Compound | IC50 [nM]
1 | Cc1cc(C#N)ccc1-c1ccc2[nH]c(-c3c(F)cc(O)cc3F)cc2c1 [Example 157, 4-(2-(2,6-difluoro-4-hydroxyphenyl)-1H-indol-5-yl)-3-methylbenzonitrile] | 222
2 | Cc1cc(C#N)ccc1-c1ccc2[nH]c(-c3c(F)cccc3Cl)cc2c1 [Example 158, 4-[2-(2-chloro-6-fluorophenyl)-1H-indol-5-yl]-3-methylbenzonitrile] | 16
3 | Cc1cc(S(=O)(=O)N(C)C)ccc1-c1ccc2[nH]c(-c3c(F)cccc3Cl)cc2c1 [Example 159, 4-[2-(2-Chloro-6-fluoro-phenyl)-1H-indol-5-yl]-3,N,N-trimethyl-benzenesulfonamide] | 25
4 | Cc1cc(Cl)ncc1-c1ccc2[nH]c(-c3c(F)cccc3Cl)cc2c1 [Example 160, 2-(2-Chloro-6-fluoro-phenyl)-5-(6-chloro-4-methyl-pyridin-3-yl)-1H-indole] | 18
5 | Cc1cc(C#N)cnc1-c1ccc2[nH]c(-c3c(F)cccc3Cl)cc2c1 [Example 161, 6-(2-(2-chloro-6-fluorophenyl)-1H-indol-5-yl)-5-methylnicotinonitrile] | 99
6 | Cc1cc(C#N)ncc1-c1ccc2[nH]c(-c3c(F)cccc3Cl)cc2c1 [Example 162, 5-(2-(2-chloro-6-fluorophenyl)-1H-indol-5-yl)-4-methylpicolinonitrile] | 34
7 | COCCOc1cc(C)c(-c2ccc3[nH]c(-c4c(F)cccc4Cl)cc3c2)cn1 [Example 163, 2-(2-chloro-6-fluorophenyl)-5-(6-(2-methoxyethoxy)-4-methylpyridin-3-yl)-1H-indole] | 108
8 | CCOc1cc(C)c(-c2ccc3[nH]c(-c4c(F)cccc4Cl)cc3c2)cn1 [Example 164, 2-(2-chloro-6-fluorophenyl)-5-(6-ethoxy-4-methylpyridin-3-yl)-1H-indole] | 33
9 | Cc1cc(N2CCOCC2)ncc1-c1ccc2[nH]c(-c3c(F)cccc3Cl)cc2c1 [Example 165, 4-(5-(2-(2-chloro-6-fluorophenyl)-1H-indol-5-yl)-4-methylpyridin-2-yl)morpholine] | 316
10 | CNc1cc(C)c(-c2ccc3[nH]c(-c4c(F)cccc4Cl)cc3c2)cn1 [Example 166, 5-(2-(2-chloro-6-fluorophenyl)-1H-indol-5-yl)-N,4-dimethylpyridin-2-amine] | 518
11 | Cc1cc(S(=O)(=O)N(C)C)cnc1-c1ccc2[nH]c(-c3c(F)cccc3Cl)cc2c1 [Example 167, 6-(2-(2-chloro-6-fluorophenyl)-1H-indol-5-yl)-N,N,5-trimethylpyridine-3-sulfonamide] | 34
12 | CNS(=O)(=O)c1ccc(-c2ccc3[nH]c(-c4c(F)cccc4Cl)cc3c2)c(C)c1 [Example 168, 4-(2-(2-chloro-6-fluorophenyl)-1H-indol-5-yl)-N,3-dimethylbenzenesulfonamide] | 44
13 | Cc1cc(S(=O)(=O)N2CCOCC2)ccc1-c1ccc2[nH]c(-c3c(F)cccc3Cl)cc2c1 [Example 169, 4-(4-(2-(2-chloro-6-fluorophenyl)-1H-indol-5-yl)-3-methylphenylsulfonyl)morpholine] | 117
14 | Cc1cc(S(=O)(=O)N2CCN(C)CC2)ccc1-c1ccc2[nH]c(-c3c(F)cccc3Cl)cc2c1 [Example 170, 2-(2-chloro-6-fluorophenyl)-5-(2-methyl-4-(4-methylpiperazin-1-ylsulfonyl)phenyl)-1H-indole] | 170
15 | Cc1cc(-c2nnn(C)n2)ccc1-c1ccc2[nH]c(-c3c(F)cccc3Cl)cc2c1 [Example 171, 2-(2-chloro-6-fluorophenyl)-5-(2-methyl-4-(2-methyl-2H-tetrazol-5-yl)phenyl)-1H-indole] | 17
16 | COc1cc(C#N)ccc1-c1ccc2[nH]c(-c3c(F)cccc3Cl)cc2c1 [Example 172, 4-[2-(2-Chloro-6-fluoro-phenyl)-1H-indol-5-yl]-3-methoxy-benzonitrile] | 15
17 | Cc1cc(S(C)(=O)=O)ncc1-c1ccc2[nH]c(-c3c(F)cccc3Cl)cc2c1 [Example 173, 2-(2-Chloro-6-fluoro-phenyl)-5-(6-methanesulfonyl-4-methyl-pyridin-3-yl)-1H-indole] | 12
18 | CCc1cc(Cl)ncc1-c1ccc2[nH]c(-c3c(F)cccc3Cl)cc2c1 [Example 174, 5-(6-Chloro-4-ethyl-pyridin-3-yl)-2-(2-chloro-6-fluoro-phenyl)-1H-indole] | 22
19 | CCc1sc(-c2cccnc2)nc1-c1ccc2[nH]c(-c3c(F)cccc3Cl)cc2c1 [Example 175, 4-[2-(2-chloro-6-fluorophenyl)-1H-indol-5-yl]-5-ethyl-2-(pyridin-3-yl)thiazole] | 11
20 | Cc1sc(-c2cnccn2)nc1-c1ccc2[nH]c(-c3c(F)cccc3Cl)cc2c1 [Example 176, 2-(2-Chloro-6-fluoro-phenyl)-5-(5-methyl-2-pyrazin-2-yl-thiazol-4-yl)-1H-indole] | 14
21 | Cc1sc(-c2cncnc2)nc1-c1ccc2[nH]c(-c3c(F)cccc3Cl)cc2c1 [Example 177, 2-(2-Chloro-6-fluoro-phenyl)-5-(5-methyl-2-pyrimidin-5-yl-thiazol-4-yl)-1H-indole] | 82
22 | Cc1ccc(-c2nc(-c3ccc4[nH]c(-c5c(F)cccc5Cl)cc4c3)c(C)s2)cn1 [Example 178, 2-(2-Chloro-6-fluoro-phenyl)-5-[5-methyl-2-(6-methyl-pyridin-3-yl)-thiazol-4-yl]-1H-indole] | 59
23 | CCc1sc(-c2cnccn2)nc1-c1ccc2[nH]c(-c3c(F)cccc3Cl)cc2c1 [Example 179, 2-(2-Chloro-6-fluoro-phenyl)-5-(5-ethyl-2-pyrazin-2-yl-thiazol-4-yl)-1H-indole] | 23
24 | CC(C)c1sc(-c2cccnc2)nc1-c1ccc2[nH]c(-c3c(F)cccc3Cl)cc2c1 [Example 180, 2-(2-Chloro-6-fluoro-phenyl)-5-(5-isopropyl-2-pyridin-3-yl-thiazol-4-yl)-1H-indole] | 28
25 | CC(C)c1sc(-c2cnccn2)nc1-c1ccc2[nH]c(-c3c(F)cccc3Cl)cc2c1 [Example 181, 2-(2-Chloro-6-fluoro-phenyl)-5-(5-isopropyl-2-pyrazin-2-yl-thiazol-4-yl)-1H-indole] | 56
26 | CC(c1sc(-c2cccnc2)nc1-c1ccc2[nH]c(-c3c(F)cccc3Cl)cc2c1)C(F)(F)F (stereo not shown) [Example 182, 2-(2-chloro-6-fluoro-phenyl)-5-[2-pyridin-3-yl-5-(2,2,2-trifluoro-1-methyl-ethyl)-thiazol-4-yl]-1H-indole] | 142
27 | CCn1nc(-c2cnccn2)cc1-c1ccc2[nH]c(-c3c(F)cccc3Cl)cc2c1 [Example 183, 2-(2-chloro-6-fluorophenyl)-5-(1-ethyl-3-(pyrazin-2-yl)-1H-pyrazol-5-yl)-1H-indole] | 28

Next, values leading:

Row | IC50 [nM] | Compound
28 | 148 | Cn1nc(-c2ccccn2)nc1-c1ccc2[nH]c(-c3c(F)cccc3Cl)cc2c1 [Example 184, 2-(2-Chloro-6-fluoro-phenyl)-5-(2-methyl-5-pyridin-2-yl-2H-[1,2,4]-triazol-3-yl)-1H-indole]
29 | 65 | CCn1nc(-c2cccnc2)nc1-c1ccc2[nH]c(-c3ccccc3Cl)cc2c1 [Example 185, 2-(2-Chloro-phenyl)-5-(2-ethyl-5-pyridin-3-yl-2H-[1,2,4]-triazol-3-yl)-1H-indole]
30 | 34 | CCn1nc(-c2cccnc2)nc1-c1ccc2[nH]c(-c3c(Cl)cccc3Cl)cc2c1 [Example 186, 2-(2,6-Dichloro-phenyl)-5-(2-ethyl-5-pyridin-3-yl-2H-[1,2,4]triazol-3-yl)-1H-indole]
31 | 69 | CCn1nc(-c2cnccn2)nc1-c1ccc2[nH]c(-c3c(F)cccc3Cl)cc2c1 [Example 187, 2-(2-Chloro-6-fluoro-phenyl)-5-(2-ethyl-5-pyrazin-2-yl-2H-[1,2,4]triazol-3-yl)-1H-indole]
32 | 44 | Cn1nc(-c2cncnc2)nc1-c1ccc2[nH]c(-c3c(F)cccc3Cl)cc2c1 [Example 188, 2-(2-Chloro-6-fluoro-phenyl)-5-(2-methyl-5-pyrimidin-5-yl-2H-[1,2,4]triazol-3-yl)-1H-indole]
33 | 76 | CCn1nc(C(F)(F)F)cc1-c1ccc2[nH]c(-c3ccncc3C)cc2c1 [Example 189, 5-(1-ethyl-3-(trifluoromethyl)-1H-pyrazol-5-yl)-2-(3-methylpyridin-4-yl)-1H-indole]
34 | 111 | CCn1nc(C(F)(F)F)cc1-c1ccc2[nH]c(-c3cnc(OC)cc3C)cc2c1 [Example 190, 5-(1-ethyl-3-(trifluoromethyl)-1H-pyrazol-5-yl)-2-(6-methoxy-4-methylpyridin-3-yl)-1H-indole]
35 | 67 | CCn1nc(C(F)(F)F)cc1-c1ccc2[nH]c(-c3cnccc3C)cc2c1 [Example 191, 5-(1-ethyl-3-(trifluoromethyl)-1H-pyrazol-5-yl)-2-(4-methylpyridin-3-yl)-1H-indole]
36 | 149 | CCn1nc(C(F)(F)F)cc1-c1ccc2[nH]c(-c3ccncc3F)cc2c1 [Example 192, 5-(1-ethyl-3-(trifluoromethyl)-1H-pyrazol-5-yl)-2-(3-fluoropyridin-4-yl)-1H-indole]
37 | 129 | CCn1nc(C(F)(F)F)cc1-c1ccc2[nH]c(-c3ccc(OC)nc3C)cc2c1 [Example 193, 5-(1-ethyl-3-(trifluoromethyl)-1H-pyrazol-5-yl)-2-(6-methoxy-2-methylpyridin-3-yl)-1H-indole]
38 | 139 | CCn1nc(C(F)(F)F)cc1-c1ccc2[nH]c(-c3ccnc(OC)c3Cl)cc2c1 [Example 194, 2-(3-chloro-2-methoxypyridin-4-yl)-5-(1-ethyl-3-(trifluoromethyl)-1H-pyrazol-5-yl)-1H-indole]
39 | 782 | CCn1nc(C(F)(F)F)cc1-c1ccc2[nH]c(C3=CCCCC3)cc2c1 [Example 195, 2-cyclohexenyl-5-[1-ethyl-3-{trifluoromethyl}-1H-pyrazol-5-yl]-1H-indole]
40 | 24 | CCn1nc(C(F)(F)F)cc1-c1ccc2[nH]c(C3CCCCC3)cc2c1 [Example 196, 2-cyclohexyl-5-(1-ethyl-3-(trifluoromethyl)-1H-pyrazol-5-yl)-1H-indole]
